In US9663503B2, “5-[[4-[[morpholin-2-yl]methylamino]-5-(trifluoromethyl)-2-pyridyl]amino]pyrazine-2-carbonitrile and therapeutic uses thereof” (priority 2012, dated 2017):

Experiments:
HT29 cells [1] = test: Cellular efficacy in combination with SN38 (SRB potentiation); assay type: cell-based; conditions: SRB IC50/Potentiation IC50, 96 hour, SN38 at its IC50
Method: Assay 4: Cellular Efficacy in HT29 or SW620 Colon Carcinoma Cells in Combination with SN38 or Gemcitabine
HT29 or SW620 cells were seeded at 1.6 to 3.2×10^3 cells per well in 96-well plates in a volume of 160 μL medium and allowed to attach for 36 hours prior to treatment.
The Potentiation Index (PI) was calculated as a measure of the ability of the CHK1 inhibitor to enhance SN38 or gemcitabine cytotoxicity and was defined as the ratio of the Cytotoxicity IC50 of the CHK1 inhibitor alone versus the Potentiation IC50 of the CHK1 inhibitor combined with the genotoxic (i.e., PI=CHK1 inhibitor SRB IC50/Potentiation IC50).

HT29 cells [2] = test: Selectivity in cells for CHK1-dependent checkpoint abrogation versus cytotoxicity (SRB IC50/MIA IC50); assay type: cell-based; conditions: SRB IC50/MIA IC50, both in HT29 cells
Method: Assay 3: Assessment of Selectivity in Cells for CHK1-Dependent Checkpoint Abrogation versus Cytotoxicity
Compound cytotoxicity was assessed using a 96 hour sulforhodamine B assay (SRB, Sigma catalog number S9012). HT29 or SW620 cells were seeded at 1.6 to 3.2×10^3 cells per well in 96-well plates in a volume of 160 μL medium and allowed to attach for 36 hours prior to treatment. […] Cells were incubated for 96 hours (four doublings) at 37° C. in a humidified 5% CO2 environment and then fixed and stained with SRB.
The Activity Index (AI), a measure of the selectivity of the CHK1 inhibitor test compounds for effecting CHK1-dependent checkpoint abrogation versus cytotoxicity was calculated from the ratio of the CHK1 inhibitor cytotoxicity IC50 versus the MIA IC50 (i.e., Al=CHK1 inhibitor SRB IC50/MIA IC50), both measured in HT29 cells.

CHK1 = CHK1 (Homo sapiens (Human), UniProt O14757); test: CHK1 DELFIA assay as described in Collins et al., 2009a; assay type: biochemical
in vivo = conditions: female Balb/c mice, 10 mg/kg iv and po
Method: Assay 5: Oral Bioavailability and Pharmacokinetics in Mice
All work was performed in accordance with the Home Office regulations under the Animals (Scientific Procedures) Act 1986 and according to UKCCCR guidelines for animal experimentation.
CHK1 inhibitor compounds were formulated in 10% DMSO, 1% Tween 20 and 89% sterile saline. Female Balb/c mice (Charles River UK Ltd, Margate, U.K.) were administered intravenously (iv) and orally (po) with 10 mg/kg of CHK1 inhibitor compound. Control animals received the vehicle alone. Groups of 3 mice were injected per timepoint. At 5, 15 and 30 minutes and 1, 2, 4, 6 and 24 hours after dosing, blood was collected by cardiac puncture with heparinised syringes from mice under anaesthesia (halothane/oxygen mix). Following centrifugation (9000×g, 2 minutes, 4° C.) plasma was frozen on dry ice and stored at −80° C. Tissues were excised, snap frozen in liquid nitrogen and stored at −80° C. Thawed plasma samples were extracted by protein precipitation using 3 volumes of methanol containing internal standard. […]. After centrifugation, supernatant was transferred for analysis. Extracted plasma samples were analysed by LC-MS-MS on an Agilent 1200 or 1290 LC coupled to an Agilent 6410 triple quadrupole mass spectrometer for the quantitation of the CHK1 inhibitor compound and internal standard. […]

HT29 cells [3] = test: Cellular potency in Mitosis Inhibition Assay (MIA), checkpoint abrogation after etoposide; assay type: cell-based; conditions: versus Y-154
Method: Assay 2: Cellular Potency in Mitosis Inhibition Assay (MIA)
Checkpoint abrogation by CHK1 kinase function inhibitors in combination with genotoxic agents was assessed using a europium based ELISA assay designed to quantify the number of cells trapped in mitosis after treatment with a genotoxic agent (to induce G2 arrest) followed by a CHK1 inhibitor test compound in combination with nocodazole to abrogate this arrest. HT29 cells were seeded at 10^4 cells per well into 96-well plates in a volume of 160 μL and left to attach for 36 hours. […] After genotoxic drug exposure, the medium was removed and replaced with fresh medium (160 μL). […] CHK1 inhibitor test compounds were added in 40 μL aliquots using quadruplicate wells for each concentration. After 21 hours exposure, the medium was removed and cells were fixed in 4% formaldehyde in phosphate buffered saline (PBS, pH 7.4, pre-cooled to 4° C.) for 30 minutes at 4° C., followed by 100% methanol (pre-cooled to −20° C.) for 10 minutes at ambient temperature. Wells were washed with PBS and blocked with 5% dried milk (Marvel) in Tris-buffered saline (TBS, pH 7.4) at 37° C. for 30 minutes. Each well was washed three times with water containing 0.1% Tween 20. […] Primary antibody was removed and wells were washed with water containing 0.1% Tween 20. […] Europium emissions were counted on a Wallac, Victor2 counter (Perkin-Elmer, Bucks UK).

Sequence of CHK1 (O14757 whole entry): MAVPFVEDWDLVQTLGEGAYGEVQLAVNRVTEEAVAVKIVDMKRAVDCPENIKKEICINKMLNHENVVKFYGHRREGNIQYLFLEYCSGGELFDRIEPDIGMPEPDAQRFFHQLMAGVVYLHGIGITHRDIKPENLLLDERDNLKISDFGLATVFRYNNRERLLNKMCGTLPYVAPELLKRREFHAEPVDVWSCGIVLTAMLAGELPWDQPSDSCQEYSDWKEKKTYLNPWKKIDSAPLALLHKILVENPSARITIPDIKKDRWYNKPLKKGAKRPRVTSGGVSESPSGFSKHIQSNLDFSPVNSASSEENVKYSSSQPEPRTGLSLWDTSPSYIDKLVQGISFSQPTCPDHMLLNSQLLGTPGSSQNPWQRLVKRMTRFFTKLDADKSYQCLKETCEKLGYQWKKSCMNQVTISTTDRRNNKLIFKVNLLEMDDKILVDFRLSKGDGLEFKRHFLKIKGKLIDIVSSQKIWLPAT

SMILES | Cell Efficacy + SN38 in HT29 cells (Potentiation Index) (HT29 cells [1]) | Cellular Selectivity (Activity Index) (HT29 cells [2]) | IC50 (CHK1) | Oral Bioavailability in Mouse (in vivo) | bioavailability (in vivo; female, Balb/c, mouse, in vivo, 10 mg/kg) | more potent than the next most potent compound (Y-154), MIA cellular potency (HT29 cells [3])
COCc1ccc(-c2cnc(Nc3cnc(C#N)cn3)cc2NC[C@H]2CNCCO2)cc1 [Compound Y-156] | 1.6 fold | 5.4 fold | 10 nM | – | – | –
COC(C)(C)C#Cc1cnc(Nc2cnc(C#N)cn2)cc1NC[C@@H]1CNCCO1 [Compound Y-155] | 0.9 fold | – | 5 nM | – | – | –
COCc1ccc(-c2cnc(Nc3cnc(C#N)cn3)cc2NC[C@@H]2CNCCO2)cc1 [Compound Y-148] | – | 4.4 fold | 13 nM | – | – | –
N#Cc1cnc(Nc2cc(NC[C@H]3CNCCO3)c(C(F)(F)F)cn2)cn1 [Compound 1, 5-[[4-[[(2R)-Morpholin-2-yl]methylamino]-5-(trifluoromethyl)-2-pyridyl]amino]pyrazine-2-carbonitrile] | – | – | – | 105% | 100% | approximately 3 fold
COCCOc1ccc(-c2cnc(Nc3cnc(C#N)cn3)cc2NC[C@H]2CNCCO2)cc1 [Compound Y-157] | 2 fold | 6.3 fold | 15 nM | – | – | –
N#Cc1cnc(Nc2cc(NC[C@@H]3CNCCO3)c(C(F)(F)F)cn2)cn1 [Compound 2, 5-[[4-[[(2S)-Morpholin-2-yl]methylamino]-5-(trifluoromethyl)-2-pyridyl]amino]pyrazine-2-carbonitrile] | – | – | – | – | – | ~5 fold
COCC#Cc1cnc(Nc2cnc(C#N)cn2)cc1NC[C@@H]1CNCCO1 [Compound Y-154] | 0.8 fold | 9.0 fold | 1 nM | – | – | –
COCCOc1ccc(-c2cnc(Nc3cnc(C#N)cn3)cc2NC[C@@H]2CNCCO2)cc1 [Compound Y-149] | – | 3.5 fold | 10 nM | – | – | –
N#Cc1cnc(Nc2cc(NCC3CNCCO3)c(C(=O)Nc3ccccc3)cn2)cn1 (stereo not shown) [Compound Y-102] | – | 4.6 fold | 20 nM | – | – | –
COCCCc1cnc(Nc2cnc(C#N)cn2)cc1NC[C@H]1CNCCO1 [Compound Y-159] | – | – | 23 nM | – | – | –
